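In this assay, cells in 96-well plates receive the compound at five concentrations for 48 hours. Endpoints are linearly interpolated between the surrounding concentrations. GI50 marks 50% less growth.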 Activity calls are given as the source filed them. Cut-off read from the data, not from the text of the source: active = GI50 up to about 1.1 µM and inactive = higher.
Experiments:
Test in all cases: DTP human tumour cell line panel, 48 h
786-0 = tested on: 786-0
A498 = tested on: A498
A549 = tested on: A549
ACHN = tested on: ACHN
CAKI-1 = tested on: CAKI-1
CCRF-CEM = tested on: CCRF-CEM
COLO 205 = tested on: COLO 205
DLD-1 = tested on: DLD-1
DMS-114 = tested on: DMS-114
DMS-273 = tested on: DMS-273
EKVX = tested on: EKVX
HCC 2998 = tested on: HCC 2998
HCT-116 = tested on: HCT-116
HCT-15 = tested on: HCT-15
HL-60 = tested on: HL-60
HOP-18 = tested on: HOP-18
HOP-62 = tested on: HOP-62
IGROV-1 = tested on: IGROV-1
K562 = tested on: K562
KM-20L2 = tested on: KM-20L2
KM12 = tested on: KM12
LXFL 529 = tested on: LXFL 529
M14 = tested on: M14
M19-MEL = tested on: M19-MEL
MOLT-4 = tested on: MOLT-4
Malme-3M = tested on: Malme-3M
NCI-H226 = tested on: NCI-H226
NCI-H460 = tested on: NCI-H460
NCI-H522 = tested on: NCI-H522
OVCAR-3 = tested on: OVCAR-3
OVCAR-4 = tested on: OVCAR-4
OVCAR-8 = tested on: OVCAR-8
RPMI-8226 = tested on: RPMI-8226
RXF 393 = tested on: RXF 393
RXF 631 = tested on: RXF 631
SF-268 = tested on: SF-268
SF-539 = tested on: SF-539
SK-MEL-28 = tested on: SK-MEL-28
SK-MEL-2 = tested on: SK-MEL-2
SK-MEL-5 = tested on: SK-MEL-5
SK-OV-3 = tested on: SK-OV-3
SN12C = tested on: SN12C
SNB-19 = tested on: SNB-19
SNB-75 = tested on: SNB-75
SNB-78 = tested on: SNB-78
SR = tested on: SR
SW-620 = tested on: SW-620
TK-10 = tested on: TK-10
U-251 = tested on: U-251
UACC-257 = tested on: UACC-257
UO-31 = tested on: UO-31
HOP-92 = tested on: HOP-92
HT-29 = tested on: HT-29
LOX IMVI = tested on: LOX IMVI
NCI-H23 = tested on: NCI-H23
OVCAR-5 = tested on: OVCAR-5
SF-295 = tested on: SF-295
UACC-62 = tested on: UACC-62
XF498 = tested on: XF498

CC1=NNC(=O)C2CCC(=O)N12 (stereo unspecified)
GI50 (786-0): > 100 µM (inactive) | GI50 (A498): > 100 µM (inactive) | GI50 (A549): > 100 µM (inactive) | GI50 (ACHN): > 100 µM (inactive) | GI50 (CAKI-1): > 100 µM (inactive) | GI50 (CCRF-CEM): > 100 µM (inactive) | GI50 (COLO 205): > 100 µM (inactive) | GI50 (DLD-1): > 100 µM (inactive) | GI50 (DMS-114): > 100 µM (inactive) | GI50 (DMS-273): > 100 µM (inactive) | GI50 (EKVX): > 100 µM (inactive) | GI50 (HCC 2998): > 100 µM (inactive) | GI50 (HCT-116): > 100 µM (inactive) | GI50 (HCT-15): > 100 µM | GI50 (HL-60): > 100 µM (inactive) | GI50 (HOP-18): > 100 µM (inactive) | GI50 (HOP-62): > 100 µM (inactive) | GI50 (IGROV-1): > 100 µM (inactive) | GI50 (K562): > 100 µM (inactive) | GI50 (KM-20L2): 49.2 µM (inactive) | GI50 (KM12): > 100 µM (inactive) | GI50 (LXFL 529): > 100 µM (inactive) | GI50 (M14): > 100 µM (inactive) | GI50 (M19-MEL): > 100 µM (inactive) | GI50 (MOLT-4): > 100 µM (inactive) | GI50 (Malme-3M): > 100 µM (inactive) | GI50 (NCI-H226): > 100 µM (inactive) | GI50 (NCI-H460): > 100 µM (inactive) | GI50 (NCI-H522): > 100 µM (inactive) | GI50 (OVCAR-3): > 100 µM (inactive) | GI50 (OVCAR-4): > 100 µM (inactive) | GI50 (OVCAR-8): > 100 µM (inactive) | GI50 (RPMI-8226): > 100 µM (inactive) | GI50 (RXF 393): > 100 µM (inactive) | GI50 (RXF 631): > 100 µM (inactive) | GI50 (SF-268): > 100 µM (inactive) | GI50 (SF-539): > 100 µM (inactive) | GI50 (SK-MEL-28): > 100 µM (inactive) | GI50 (SK-MEL-2): > 100 µM (inactive) | GI50 (SK-MEL-5): > 100 µM (inactive) | GI50 (SK-OV-3): > 100 µM (inactive) | GI50 (SN12C): > 100 µM (inactive) | GI50 (SNB-19): > 100 µM (inactive) | GI50 (SNB-75): > 100 µM (inactive) | GI50 (SNB-78): > 100 µM (inactive) | GI50 (SR): > 100 µM (inactive) | GI50 (SW-620): > 100 µM (inactive) | GI50 (TK-10): > 100 µM (inactive) | GI50 (U-251): > 100 µM (inactive) | GI50 (UACC-257): > 100 µM (inactive) | GI50 (UO-31): > 100 µM (inactive)

CC(C)(C)Sc1nnc(SC(C)(C)C)c2c(SC(C)(C)C)nnc(O)c12
GI50 (786-0): 10.1 µM (inactive) | GI50 (A498): 14 µM (inactive) | GI50 (A549): 4.59 µM (inactive) | GI50 (CAKI-1): 3.58 µM (inactive) | GI50 (CCRF-CEM): 7.5 µM (inactive) | GI50 (COLO 205): 12.4 µM (inactive) | GI50 (DLD-1): 10.9 µM (inactive) | GI50 (DMS-114): 4.31 µM (inactive) | GI50 (DMS-273): 7.8 µM (inactive) | GI50 (EKVX): 12.1 µM (inactive) | GI50 (HCC 2998): 11.5 µM (inactive) | GI50 (HCT-116): 3.78 µM (inactive) | GI50 (HCT-15): 4.31 µM | GI50 (HL-60): 2.14 µM (inactive) | GI50 (HOP-62): 13.9 µM (inactive) | GI50 (HOP-92): 2.49 µM (inactive) | GI50 (HT-29): 6.03 µM (inactive) | GI50 (IGROV-1): 8.51 µM (inactive) | GI50 (K562): 4.74 µM (inactive) | GI50 (KM-20L2): 10.4 µM (inactive) | GI50 (KM12): 12.9 µM (inactive) | GI50 (LOX IMVI): 11.7 µM (inactive) | GI50 (LXFL 529): 10.6 µM (inactive) | GI50 (M14): 14.8 µM (inactive) | GI50 (M19-MEL): 4.37 µM (inactive) | GI50 (MOLT-4): 3.37 µM (inactive) | GI50 (Malme-3M): 13.1 µM (inactive) | GI50 (NCI-H226): 15.2 µM (inactive) | GI50 (NCI-H23): 10.9 µM (inactive) | GI50 (NCI-H460): 6.25 µM (inactive) | GI50 (NCI-H522): 3.61 µM (inactive) | GI50 (OVCAR-3): 10.7 µM (inactive) | GI50 (OVCAR-4): 2.16 µM (inactive) | GI50 (OVCAR-5): 4.61 µM (inactive) | GI50 (OVCAR-8): 10 µM (inactive) | GI50 (RPMI-8226): 2.8 µM (inactive) | GI50 (RXF 393): 3.39 µM (inactive) | GI50 (RXF 631): 3.2 µM (inactive) | GI50 (SF-268): 7.53 µM (inactive) | GI50 (SF-295): 11.4 µM (inactive) | GI50 (SF-539): 10.6 µM (inactive) | GI50 (SK-MEL-5): 5.35 µM (inactive) | GI50 (SK-OV-3): 17.9 µM (inactive) | GI50 (SN12C): 10.2 µM (inactive) | GI50 (SNB-19): 11.6 µM (inactive) | GI50 (SNB-75): 11.8 µM (inactive) | GI50 (SNB-78): 12.2 µM (inactive) | GI50 (SR): 4.14 µM (inactive) | GI50 (SW-620): 6.87 µM (inactive) | GI50 (TK-10): 23.2 µM (inactive) | GI50 (U-251): 5.62 µM (inactive) | GI50 (UACC-257): 13.6 µM (inactive) | GI50 (UACC-62): 9.91 µM (inactive) | GI50 (UO-31): 5.73 µM (inactive) | GI50 (XF498): 15.3 µM (inactive)

Reference: ChEMBL document CHEMBL1201862, “PubChem BioAssay data set” (2004)
